According to BigSolDB 2.1:

Question: What does the source list for Cc1coc2c1C(=O)C(=O)c1c-2ccc2c(C)cccc12?
Answer: solubility (mole fraction) (in DMF, 278.15 K): 0.000919; solubility (mole fraction) (in DMF, 283.15 K): 0.00106; solubility (mole fraction) (in DMF, 288.15 K): 0.00125; solubility (mole fraction) (in DMF, 293.15 K): 0.00146; solubility (mole fraction) (in DMF, 298.15 K): 0.00169; solubility (mole fraction) (in DMF, 303.15 K): 0.00193; solubility (mole fraction) (in DMF, 308.15 K): 0.0022; solubility (mole fraction) (in DMF, 313.15 K): 0.00249; solubility (mole fraction) (in DMF, 318.15 K): 0.00288; solubility (mole fraction) (in DMF, 323.15 K): 0.00335; solubility (mole fraction) (in acetone, 278.15 K): 0.00103; solubility (mole fraction) (in acetone, 283.15 K): 0.0012; solubility (mole fraction) (in acetone, 288.15 K): 0.0014; solubility (mole fraction) (in acetone, 293.15 K): 0.00164; solubility (mole fraction) (in acetone, 298.15 K): 0.00194; solubility (mole fraction) (in acetone, 303.15 K): 0.00221; solubility (mole fraction) (in acetone, 308.15 K): 0.00253; solubility (mole fraction) (in acetone, 313.15 K): 0.00287; solubility (mole fraction) (in acetone, 318.15 K): 0.00324; solubility (mole fraction) (in acetone, 323.15 K): 0.0036; solubility (mole fraction) (in ethanol, 278.15 K): 6.4e-05; solubility (mole fraction) (in ethanol, 283.15 K): 8.08e-05; solubility (mole fraction) (in ethanol, 288.15 K): 9.82e-05; solubility (mole fraction) (in ethanol, 293.15 K): 0.00012; solubility (mole fraction) (in ethanol, 298.15 K): 0.000144; solubility (mole fraction) (in ethanol, 303.15 K): 0.000167; solubility (mole fraction) (in ethanol, 308.15 K): 0.000198; solubility (mole fraction) (in ethanol, 313.15 K): 0.000233; solubility (mole fraction) (in ethanol, 318.15 K): 0.000275; solubility (mole fraction) (in ethanol, 323.15 K): 0.000332; solubility (mole fraction) (in ethylene glycol, 278.15 K): 8.39e-05; solubility (mole fraction) (in ethylene glycol, 283.15 K): 9.79e-05; solubility (mole fraction) (in ethylene glycol, 288.15 K): 0.000114; solubility (mole fraction) (in ethylene glycol, 293.15 K): 0.000132; solubility (mole fraction) (in ethylene glycol, 298.15 K): 0.000152; solubility (mole fraction) (in ethylene glycol, 303.15 K): 0.000175; solubility (mole fraction) (in ethylene glycol, 308.15 K): 0.000201; solubility (mole fraction) (in ethylene glycol, 313.15 K): 0.000232; solubility (mole fraction) (in ethylene glycol, 318.15 K): 0.000269; solubility (mole fraction) (in ethylene glycol, 323.15 K): 0.000317; solubility (mole fraction) (in isopropanol, 278.15 K): 0.00029; solubility (mole fraction) (in isopropanol, 283.15 K): 0.000334; solubility (mole fraction) (in isopropanol, 288.15 K): 0.000395; solubility (mole fraction) (in isopropanol, 293.15 K): 0.000456; solubility (mole fraction) (in isopropanol, 298.15 K): 0.000535; solubility (mole fraction) (in isopropanol, 303.15 K): 0.000626; solubility (mole fraction) (in isopropanol, 308.15 K): 0.000729; solubility (mole fraction) (in isopropanol, 313.15 K): 0.000849; solubility (mole fraction) (in isopropanol, 318.15 K): 0.00101; solubility (mole fraction) (in isopropanol, 323.15 K): 0.0012; solubility (mole fraction) (in methanol, 278.15 K): 5.56e-05; solubility (mole fraction) (in methanol, 283.15 K): 6.11e-05; solubility (mole fraction) (in methanol, 288.15 K): 6.79e-05; solubility (mole fraction) (in methanol, 293.15 K): 7.64e-05; solubility (mole fraction) (in methanol, 298.15 K): 8.61e-05; solubility (mole fraction) (in methanol, 303.15 K): 9.8e-05; solubility (mole fraction) (in methanol, 308.15 K): 0.000111; solubility (mole fraction) (in methanol, 313.15 K): 0.00013; solubility (mole fraction) (in methanol, 318.15 K): 0.000154; solubility (mole fraction) (in methanol, 323.15 K): 0.000182; solubility (mole fraction) (in n-butanol, 278.15 K): 0.000574; solubility (mole fraction) (in n-butanol, 283.15 K): 0.000636; solubility (mole fraction) (in n-butanol, 288.15 K): 0.000706; solubility (mole fraction) (in n-butanol, 293.15 K): 0.000793; solubility (mole fraction) (in n-butanol, 298.15 K): 0.000903; solubility (mole fraction) (in n-butanol, 303.15 K): 0.00103; solubility (mole fraction) (in n-butanol, 308.15 K): 0.00117; solubility (mole fraction) (in n-butanol, 313.15 K): 0.00135; solubility (mole fraction) (in n-butanol, 318.15 K): 0.00154; solubility (mole fraction) (in n-butanol, 323.15 K): 0.00178; solubility (mole fraction) (in n-propanol, 278.15 K): 0.000448; solubility (mole fraction) (in n-propanol, 283.15 K): 0.00051; solubility (mole fraction) (in n-propanol, 288.15 K): 0.000575; solubility (mole fraction) (in n-propanol, 293.15 K): 0.00067; solubility (mole fraction) (in n-propanol, 298.15 K): 0.000756; solubility (mole fraction) (in n-propanol, 303.15 K): 0.000866; solubility (mole fraction) (in n-propanol, 308.15 K): 0.000987; solubility (mole fraction) (in n-propanol, 313.15 K): 0.00113; solubility (mole fraction) (in n-propanol, 318.15 K): 0.0013; solubility (mole fraction) (in n-propanol, 323.15 K): 0.00151; solubility (mole fraction) (in water, 278.15 K): 5.28e-08; solubility (mole fraction) (in water, 283.15 K): 5.74e-08; solubility (mole fraction) (in water, 288.15 K): 6.23e-08; solubility (mole fraction) (in water, 293.15 K): 6.81e-08; solubility (mole fraction) (in water, 298.15 K): 7.47e-08; solubility (mole fraction) (in water, 303.15 K): 8.25e-08; solubility (mole fraction) (in water, 308.15 K): 9.26e-08; solubility (mole fraction) (in water, 313.15 K): 1.04e-07; solubility (mole fraction) (in water, 318.15 K): 1.17e-07; solubility (mole fraction) (in water, 323.15 K): 1.34e-07
